Key:
B16 melanoma = assay: Anti-tumor activity in B16 melanoma mouse model; assay type: in vivo; conditions: B16 mice, i.p.; antibody drugs 150 μg, D18 25 μg per mouse; dosing to day 21
From the text: (§1) A. Treatment with ADC HE-S2, single administration of anti-PD-L1 antibody, D18, or anti-PD-L1 THIOMAB, and anti-PD-L1 antibody/D18 combined administration for inhibitory activity against mouse MC38 tumor growth. B. Whole animal survival study. The ordinate of the curve represents the percentage of tumor-bearing mice that remained alive after different days, and the abscissa thereof represents the number of experimental days. C. Treatment with ADC HE-S2, single administration of anti-PD-L1 antibody, D18, or anti-PD-L1 THIOMAB, and anti-PD-L1 antibody/D18 combined administration for inhibitory activity against mouse MC38 tumor growth. Student's t test was used to compare significant differences between the groups, and p<0.001 is represented by ***.
B16 melanoma is a tumor with low PD-L1 level and certain drug resistance to PD-1/PD-L1 blocking treatment. As a result, as expected by the inventors, the inhibitory effect of each drug on B16 melanoma was reduced relative to the MC38 tumor.
(§2) Dosage: Antibody drugs, administered 150 μg per mouse for each time, and D18, administered 25 μg per mouse for each time. - means no administration on the day. * Only mice with MC38 tumor model were allowed to be administered until the 24th day, and mice with B16 tumor model were no longer administered after the 21st day.

[1] = Effect of drug treatment on body weight of healthy mice; assay type: in vivo, mouse; conditions: antibody drugs 150 μg, D18 25 μg per dose
Procedure: Mice were treated with ADC HE-S2, anti-PD-L1 antibody+D18 in combination, anti-PD-L1 antibody alone, D18 alone, and isotype IgG, and their body weight variations were recorded. The time of administration for each drug is indicated by the arrow. Student's t test was used to compare significance differences between groups, wherein p<0.05 is represented by *. p<0.01 is represented by **, and no significance difference is represented by ns.
Then, the inventors examined the effect of each group of drug treatment on the body weight of mice in a mouse model to determine the toxic and side effects of the drugs used, and the results are shown in FIG. 17. Healthy mice were divided into an ADC group, an anti-PD-L1 antibody+D18 group, an anti-PD-L1 antibody group, a D18 group and an IgG group according to the administration, with 5 mice per group. The mode and dose of administration for each group of mice were the same as those in the mouse tumor model experiment: in the ADC group, ADC HE-S2 was dosed once a week, and the anti-PD-L1 antibody was […], 150 μg for each time; D18 was dosed once a week, 25 μg for each time; the anti-PD-L1 antibody and the IgG isotype antibody were dosed twice a week, 150 μg for each time.

MC38 tumor = assay: Anti-tumor activity and survival in MC38 mouse tumor model; assay type: in vivo; conditions: for inhibitory activity against MC38 tumor growth: MC38 mice, i.p., antibody drugs 150 μg per mouse, D18 25 μg per mouse, schedule Table 1
From the text: as §1
To verify the anti-cancer activity of ADC HE-S2, the inventors first made a mouse model with MC38. After the tumor was loaded, a visible tumor could be observed on the mouse surface for about one week. When the mean tumor tissue volume of the mice reached 100 mm^3, the mice were randomly grouped as follows according to the final type of drug administered: IgG isotype control antibody group (abbreviated as IgG), anti-PD-L1 antibody group (anti-PD-L1), anti-PD-L1 THIOMAB group (Thiomab), D18 group (D18), D18/anti-PD-L1 antibody combination treatment group (anti-PD-L1 & D18), and ADC HE-S2 group (ADC HE-S2), with 7-8 mice per group. The IgG isotype control antibody group, the anti-PD-L1 antibody (i.e., avelumab as described in Example 2) group, and the anti-PD-L1 THIOMAB (i.e., mutant antibody prepared in Example 2) group were administered twice a week via intraperitoneal injection of 150 μg per mouse for each time. The D18 group was administered twice a week via intraperitoneal injection of 25 μg per mouse for each time. In the D18/anti-PD-L1 antibody combination treatment group, the anti-PD-L1 antibody was dosed twice a week, 150 μg per mouse for each time; the D18 was dosed […], 25 μg per mouse for each time; in the ADC HE-S2 group, ADC HE-S2 was dosed once a week via intraperitoneal injection of 150 μg per mouse for each time; the anti-PD-L1 antibody was dosed once a week, staggered from the administration of the ADC, via intraperitoneal injection of 150 μg per mouse for each time.
as §2

murine PD-L1 = murine PD-L1 (Mus musculus, UniProt Q9EP73); conditions: Deng et al., 2016; cited from earlier work
Sequence of murine PD-L1 (Q9EP73 19-290): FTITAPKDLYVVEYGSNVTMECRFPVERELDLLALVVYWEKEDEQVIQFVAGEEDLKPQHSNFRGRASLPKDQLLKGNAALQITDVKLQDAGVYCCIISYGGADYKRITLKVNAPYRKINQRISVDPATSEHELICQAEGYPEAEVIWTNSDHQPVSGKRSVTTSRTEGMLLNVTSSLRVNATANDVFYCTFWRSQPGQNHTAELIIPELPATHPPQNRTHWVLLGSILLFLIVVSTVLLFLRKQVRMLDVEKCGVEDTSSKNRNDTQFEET

Molecule | inhibitory effect on B16 melanoma (B16 melanoma) | body weight change of the mice after administration [1] | inhibitory activity against MC38 tumor growth (MC38 tumor) | cross-reaction with murine PD-L1 (murine PD-L1) | survival rate of mice (MC38 tumor; until day 70)
anti-PD-L1 antibody: fully humanized IgG1 type monoclonal anti-PD-L1 antibody drug avelumab [reference compound] | almost comparative to that of the IgG isotype antibody | almost consistent with that of the blank control IgG group | slightly superior to the efficacy of the IgG isotype antibody | cross-react with murine PD-L1 | 
CCCCNc1nc(N)nc2ccc(Cc3ccc(CN(C)C)cc3)nc12 [D18, N^4-butyl-6-(4-((dimethylamino)methyl)benzyl)pyridine[3,2-d]pyriproxyfen-2,4-diamine] | almost comparative to that of the IgG isotype antibody | some decreases in body weight | slightly superior to the efficacy of the IgG isotype antibody |  | 1/8
